Source: ChEMBL document CHEMBL5215009, “Discovery of Pan-peroxisome Proliferator-Activated Receptor Modulators from an Endolichenic Fungus, Daldinia childiae” (J Nat Prod, 2022)
Each block holds one compound with its values, some of them ahead of it. Activity calls are given as the source filed them. No cut-off for these calls is given here.

How the values were obtained:
Mesenchymal stem cells [1] = experiment: Induction of adipogenesis in differentiated human BMMSC cells assessed as increase in adiponectin level at 30 uM in presence of IDX by ELISA; format: functional, cell-based
Mesenchymal stem cells [2] = experiment: Induction of adipogenesis in differentiated human BMMSC cells assessed as fold increase in adiponectin level at 30 uM in presence of IDX by ELISA relative to control; format: functional
Mesenchymal stem cells [3] = experiment: Induction of adipogenesis in differentiated human BMMSC cells assessed as fold increase in adiponectin level in presence of IDX by ELISA; format: functional, cell-based
Mesenchymal stem cells [4] = experiment: Induction of adipogenesis in differentiated human BMMSC cells assessed as increase in number and size of lipid droplets at 30 uM in presence of IDX by Oil red O staining based inverted microscope analysis; format: functional, cell-based
[5] = target: T1, Peroxisome proliferator-activated receptor alpha (Homo sapiens) (UniProt Q07869); experiment: Displacement of fluormone pan-PPARgreen from PPARalpha (unknown origin) at 30 uM by TR-FRET based competitive binding assay relative to control
T1 sequence (whole entry): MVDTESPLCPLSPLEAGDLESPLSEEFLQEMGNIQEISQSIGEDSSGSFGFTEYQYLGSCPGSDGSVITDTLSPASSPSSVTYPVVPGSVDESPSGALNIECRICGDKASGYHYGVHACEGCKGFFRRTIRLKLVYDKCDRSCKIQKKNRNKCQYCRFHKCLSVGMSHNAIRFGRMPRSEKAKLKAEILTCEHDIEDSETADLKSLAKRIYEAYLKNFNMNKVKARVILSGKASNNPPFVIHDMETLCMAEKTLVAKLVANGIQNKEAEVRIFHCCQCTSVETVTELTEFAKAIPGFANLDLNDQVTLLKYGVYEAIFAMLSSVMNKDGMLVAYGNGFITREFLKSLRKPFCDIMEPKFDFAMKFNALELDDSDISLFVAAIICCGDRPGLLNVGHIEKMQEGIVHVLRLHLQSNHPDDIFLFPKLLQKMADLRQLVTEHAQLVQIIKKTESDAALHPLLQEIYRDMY

[6] = target: T2, Peroxisome proliferator-activated receptor gamma (Homo sapiens) (UniProt P37231); experiment: Displacement of fluormone pan-PPARgreen from PPARgamma (unknown origin) at 30 uM by TR-FRET based competitive binding assay relative to control; settings: filed as partial agonist
T2 sequence (whole entry): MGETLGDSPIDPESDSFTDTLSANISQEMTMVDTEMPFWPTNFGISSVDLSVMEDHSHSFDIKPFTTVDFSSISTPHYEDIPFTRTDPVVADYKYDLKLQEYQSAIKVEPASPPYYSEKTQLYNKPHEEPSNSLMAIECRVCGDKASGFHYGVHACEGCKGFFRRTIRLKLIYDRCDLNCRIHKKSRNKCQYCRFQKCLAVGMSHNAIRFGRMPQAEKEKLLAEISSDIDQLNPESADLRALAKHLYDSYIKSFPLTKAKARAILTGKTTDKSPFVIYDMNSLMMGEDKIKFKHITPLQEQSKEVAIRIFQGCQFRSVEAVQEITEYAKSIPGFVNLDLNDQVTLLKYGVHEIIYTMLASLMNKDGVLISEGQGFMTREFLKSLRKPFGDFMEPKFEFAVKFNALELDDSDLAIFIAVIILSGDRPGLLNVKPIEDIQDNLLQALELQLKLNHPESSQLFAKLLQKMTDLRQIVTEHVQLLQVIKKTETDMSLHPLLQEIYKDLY

[7] = target: T3, Peroxisome proliferator-activated receptor delta (Homo sapiens) (UniProt Q03181); experiment: Displacement of fluormone pan-PPARgreen from PPARdelta (unknown origin) at 30 uM by TR-FRET based competitive binding assay relative to control; settings: filed as partial agonist
T3 sequence (whole entry): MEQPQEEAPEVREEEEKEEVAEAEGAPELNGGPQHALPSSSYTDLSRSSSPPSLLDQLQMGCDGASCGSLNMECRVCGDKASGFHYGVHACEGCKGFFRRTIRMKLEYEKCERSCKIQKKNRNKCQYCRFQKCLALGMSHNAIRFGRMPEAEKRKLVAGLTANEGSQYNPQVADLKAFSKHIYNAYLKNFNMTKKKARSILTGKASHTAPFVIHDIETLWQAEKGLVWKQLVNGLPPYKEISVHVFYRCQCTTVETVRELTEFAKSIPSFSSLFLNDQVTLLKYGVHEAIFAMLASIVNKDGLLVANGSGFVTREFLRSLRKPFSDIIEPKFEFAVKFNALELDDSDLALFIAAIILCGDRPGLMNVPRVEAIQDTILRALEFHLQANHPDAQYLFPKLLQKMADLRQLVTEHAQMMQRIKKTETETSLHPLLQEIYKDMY

[8] = target: T4, Peroxisome proliferator-activated receptor alpha (Homo sapiens, UniProt Q07869); experiment: Binding affinity to PPARalpha (unknown origin) assessed as inhibition constant by Cheng-Prusoff equation analysis
T4 sequence (Q07869 whole entry): T1 sequence (whole entry)

[9] = target: T5, Peroxisome proliferator-activated receptor gamma (Homo sapiens, UniProt P37231); experiment: Binding affinity to PPARgamma (unknown origin) assessed as inhibition constant by Cheng-Prusoff equation analysis
T5 sequence (P37231 whole entry): T2 sequence (whole entry)

[10] = target: T6, Peroxisome proliferator-activated receptor delta (Homo sapiens, UniProt Q03181); experiment: Binding affinity to PPARdelta (unknown origin) assessed as inhibition constant by Cheng-Prusoff equation analysis
T6 sequence (Q03181 whole entry): T3 sequence (whole entry)

[11] = target: T2, Peroxisome proliferator-activated receptor gamma (Homo sapiens); experiment: Partial agonist activity at PPARgamma in human BMMSC cells assessed as inhibition of pioglitazone-induced adiponectin synthesis measured after 5 days by ELISA; format: cell-based; settings: filed as partial agonist, dose 10-30 µM, time 5.0 day, DDE = dose-dependent effect
[12] = target: T4, Peroxisome proliferator-activated receptor alpha; experiment: Partial agonist activity at PPARalpha (unknown origin) assessed as increase in PRIP/RAP250 coactivator peptide requirement by Lanthascreen TR-FRET assay
[13] = target: T5, Peroxisome proliferator-activated receptor gamma; experiment: Partial agonist activity at PPARgamma (unknown origin) assessed as increase in fluorescein labeled PRIP/RAP250 coactivator peptide requirement by Lanthascreen TR-FRET assay
[14] = target: T2, Peroxisome proliferator-activated receptor gamma (Homo sapiens); experiment: Partial agonist activity at PPARgamma (unknown origin) assessed as increase in fluorescein labeled SRC-1 coactivator peptide requirement by Lanthascreen TR-FRET assay; settings: filed as partial agonist
[15] = target: T2, Peroxisome proliferator-activated receptor gamma (Homo sapiens); experiment: Partial agonist activity at PPARgamma (unknown origin) assessed as increase in fluorescein labeled SRC-2 coactivator peptide requirement by Lanthascreen TR-FRET assay; settings: filed as partial agonist
[16] = target: T6, Peroxisome proliferator-activated receptor delta; experiment: Partial agonist activity at PPARdelta (unknown origin) assessed as increase in fluorescein labeled PRIP/RAP250 coactivator peptide requirement by Lanthascreen TR-FRET assay
[17] = target: T7, Retinoic acid receptor RXR-alpha (Homo sapiens) (UniProt P19793); experiment: Agonist activity at RXRalpha-LBD (unknown origin) assessed as transactivation by measuring increase in fluorescein-labelled coactivator PGC-1alpha peptide recruitment at 60 uM by Lanthascreen TR-FRET assay relative to control; settings: filed as agonist
T7 sequence (whole entry): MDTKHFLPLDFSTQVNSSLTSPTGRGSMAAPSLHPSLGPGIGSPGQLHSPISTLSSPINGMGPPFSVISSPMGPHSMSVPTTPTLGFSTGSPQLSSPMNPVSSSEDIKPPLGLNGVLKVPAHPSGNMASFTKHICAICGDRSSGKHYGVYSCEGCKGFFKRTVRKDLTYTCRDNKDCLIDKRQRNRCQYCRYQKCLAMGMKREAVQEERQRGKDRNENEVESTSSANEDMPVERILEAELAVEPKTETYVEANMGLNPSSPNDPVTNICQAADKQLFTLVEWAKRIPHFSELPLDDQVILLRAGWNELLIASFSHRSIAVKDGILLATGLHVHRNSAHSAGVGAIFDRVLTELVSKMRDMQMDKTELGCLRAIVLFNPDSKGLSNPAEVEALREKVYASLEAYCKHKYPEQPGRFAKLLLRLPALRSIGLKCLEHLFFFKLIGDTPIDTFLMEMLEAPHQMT

[18] = target: T8, Retinoic acid receptor RXR-alpha (Homo sapiens, UniProt P19793); experiment: Agonist activity at RXRalpha-LBD (unknown origin) assessed as transactivation by measuring increase in fluorescein-labelled coactivator PGC-1alpha peptide recruitment by Lanthascreen TR-FRET
T8 sequence (P19793 whole entry): T7 sequence (whole entry)

Mesenchymal stem cells [19] = experiment: Induction of adipogenesis in differentiated human BMMSC cells assessed as fold increase in adiponectin level at 5 uM in presence of IDX by ELISA relative to control; format: functional

SMILES: COc1cccc2ccc(-c3cc(-c4ccc(O)c5c(OC)cccc45)c4cccc(OC)c4c3O)c(O)c12
Activity (Mesenchymal stem cells [1]): Active

EC50 (Mesenchymal stem cells [3]): 30.8 µM | Activity ([5]; filed as partial agonist): 56.5% | Activity [6]: 52% | Activity [7]: 51.8% | Ki [8]: 9.4 µM | Ki [9]: 19.1 µM | Ki [10]: 18.8 µM | inhibition [11]: Dde | EC50 [12]: 58.2 µM | EC50 [13]: 50.8 µM | Activity [14]: Active | Activity [15]: Active | EC50 [16]: 53.9 µM | Activity [17]: 53.2% | EC50 [18]: 52.9 µM
SMILES: COc1cccc2ccc(-c3cc(-c4ccc5cccc(OC)c5c4O)c4cccc(OC)c4c3O)c(O)c12
fold change (FC) (Mesenchymal stem cells [2]): 4.1 | Activity (Mesenchymal stem cells [4]): Active

SMILES: COc1cccc2ccc(-c3cc(-c4ccc(O)c5c(OC)cccc45)c(O)c4c(OC)cccc34)c(O)c12
Activity (Mesenchymal stem cells [1]): Active

SMILES: COc1cccc2c(-c3cc(-c4ccc(O)c5c(OC)cccc45)c4cccc(OC)c4c3O)ccc(O)c12
Activity (Mesenchymal stem cells [1]): Active

SMILES: COc1ccc(Cl)cc1C(=O)NCCc1ccc(S(=O)(=O)NC(=O)NC2CCCCC2)cc1 [GLYBURIDE]
fold change (FC) (Mesenchymal stem cells [19]): 4.93

SMILES: COc1cccc2c(-c3ccc(O)c4c(OC)cccc34)ccc(O)c12
Activity (Mesenchymal stem cells [1]): Active

SMILES: CC(=O)c1c(O)cccc1O
Activity (Mesenchymal stem cells [1]): Active

SMILES: COc1cccc2ccc(-c3ccc4cccc(OC)c4c3O)c(O)c12
Activity (Mesenchymal stem cells [1]): Active

EC50 (Mesenchymal stem cells [3]): 15.2 µM | Activity [5]: 37.6% | Activity [6]: 61.2% | Activity [7]: 42.1% | Ki [9]: 6.6 µM | inhibition [11]: Dde
SMILES: COc1cccc2ccc(-c3ccc(O)c4c(OC)cccc34)c(O)c12
fold change (FC) (Mesenchymal stem cells [2]): 6 | Activity (Mesenchymal stem cells [4]): Active

SMILES: Cc1cc(=O)c2c(O)cccc2o1
Activity (Mesenchymal stem cells [1]): Active

EC50 (Mesenchymal stem cells [3]): 0.79 µM
SMILES: CCc1ccc(CCOc2ccc(CC3SC(=O)NC3=O)cc2)nc1 (stereo not given) [PIOGLITAZONE]

SMILES: O=C1CCC(O)c2cccc(O)c21 (stereo not given)
Activity (Mesenchymal stem cells [1]): Active
